According to ChEMBL document CHEMBL3621169, “Synthesis of tetrazole compounds as a novel type of potential antimicrobial agents and their synergistic effects with clinical drugs and interactions with calf thymus DNA” (Medchemcomm, 2015):
Active and inactive are the calls of the source.

Legend:
Bacillus spizizenii [1] = assay: Antibacterial activity against Bacillus subtilis ATCC 6633 by micro dilution checkerboard method in the presence of norfloxacin; format: functional
Bacillus sp. [2] = assay: Antibacterial activity against Bacillus proteus ATCC 13315 after 24 hrs by micro broth dilution method; format: functional; conditions: Bacillus sp. (in: firmicutes), ATCC 13315, 24 h
Staphylococcus aureus [3] = assay: Antibacterial activity against Staphylococcus aureus ATCC 25923 by micro dilution checkerboard method in the presence of chloromycin; format: functional
Shigella dysenteriae [4] = assay: Antibacterial activity against Shigella dysenteriae ATCC 51252 by micro dilution checkerboard method in the presence of chloromycin; format: functional
Calf thymus DNA [5] = assay: Competitive binding affinity to calf thymus DNA by UV-visible spectroscopy in presence of neutral red; format: nucleic-acid assay; conditions: Bos taurus
Staphylococcus aureus [6] = assay: Antibacterial activity against methicillin-resistant Staphylococcus aureus N315 by micro dilution checkerboard method in the presence of chloromycin; format: functional
Bacillus sp. [7] = assay: Antibacterial activity against Bacillus proteus ATCC 13315 by micro dilution checkerboard method in the presence of norfloxacin; format: functional
Candida [8] = assay: Antifungal activity against Candida mycoderma by micro dilution checkerboard method in the presence of fluconazole; format: functional
Bacillus spizizenii [9] = assay: Antibacterial activity against Bacillus subtilis ATCC 6633 after 24 hrs by micro broth dilution method; format: functional; conditions: ATCC 6633, 24 h
Candida [10] = assay: Antifungal activity against Candida mycoderma after 24 hrs by micro broth dilution method; format: functional
Escherichia coli [11] = assay: Antibacterial activity against Escherichia coli DH52 by micro dilution checkerboard method in the presence of norfloxacin; format: functional
Aspergillus flavus [12] = assay: Antifungal activity against Aspergillus flavus by micro dilution checkerboard method in the presence of fluconazole; format: functional
Staphylococcus aureus [13] = assay: Antibacterial activity against Staphylococcus aureus ATCC 25923 by micro dilution checkerboard method in the presence of norfloxacin; format: functional
Shigella dysenteriae [14] = assay: Antibacterial activity against Shigella dysenteriae ATCC 51252 after 24 hrs by micro broth dilution method; format: functional; conditions: ATCC 51252, 24 h
Bacillus sp. [15] = assay: Antibacterial activity against Bacillus proteus ATCC 13315 by micro dilution checkerboard method in the presence of chloromycin; format: functional
Shigella dysenteriae [16] = assay: Antibacterial activity against Shigella dysenteriae ATCC 51252 by micro dilution checkerboard method in the presence of norfloxacin; format: functional
Staphylococcus aureus [17] = assay: Antibacterial activity against Staphylococcus aureus ATCC 25923 after 24 hrs by micro broth dilution method; format: functional; conditions: ATCC 25923, 24 h
Candida albicans [18] = assay: Antifungal activity against Candida albicans ATCC 90029 by micro dilution checkerboard method in the presence of fluconazole; format: functional
Micrococcus luteus [19] = assay: Antibacterial activity against Micrococcus luteus ATCC 4698 by micro dilution checkerboard method in the presence of chloromycin; format: functional
Pseudomonas aeruginosa [20] = assay: Antibacterial activity against Pseudomonas aeruginosa ATCC 27853 by micro dilution checkerboard method in the presence of norfloxacin; format: functional
Staphylococcus aureus [21] = assay: Antibacterial activity against methicillin-resistant Staphylococcus aureus N315 by micro dilution checkerboard method in the presence of norfloxacin; format: functional
Escherichia coli [22] = assay: Antibacterial activity against Escherichia coli DH52 by micro dilution checkerboard method in the presence of chloromycin; format: functional
Micrococcus luteus [23] = assay: Antibacterial activity against Micrococcus luteus ATCC 4698 after 24 hrs by micro broth dilution method; format: functional; conditions: ATCC 4698, 24 h
[24] = Ionization constant, pKa of the compound by UV spectroscopy; format: physicochemical
Escherichia coli [25] = assay: Antibacterial activity against Escherichia coli DH52 after 24 hrs by micro broth dilution method; format: functional; conditions: DH52, 24 h
Pseudomonas aeruginosa [26] = assay: Antibacterial activity against Pseudomonas aeruginosa ATCC 27853 after 24 hrs by micro broth dilution method; format: functional; conditions: ATCC 27853, 24 h
Aspergillus flavus [27] = assay: Antifungal activity against Aspergillus flavus after 24 hrs by micro broth dilution method; format: functional
Calf thymus DNA [28] = assay: Binding affinity to calf thymus DNA by UV-visible spectroscopy; format: nucleic-acid assay; conditions: Bos taurus
Candida albicans [29] = assay: Antifungal activity against Candida albicans ATCC 90029 after 24 hrs by micro broth dilution method; format: functional; conditions: ATCC 90029, 24 h
[30] = n-octanol/water partition coefficient, log P of the compound at 25 deg C after 24 hrs by saturation shake flask based UV spectroscopy; format: physicochemical
Micrococcus luteus [31] = assay: Antibacterial activity against Micrococcus luteus ATCC 4698 by micro dilution checkerboard method in the presence of norfloxacin; format: functional
Cyberlindnera jadinii [32] = assay: Antifungal activity against Candida utilis ATCC 9950 after 24 hrs by micro broth dilution method; format: functional; conditions: Williopsis jadinii, ATCC 9950, 24 h
Staphylococcus aureus [33] = assay: Antibacterial activity against methicillin-resistant Staphylococcus aureus N315 after 24 hrs by micro broth dilution method; format: functional; conditions: N315, 24 h
Bacillus spizizenii [34] = assay: Antibacterial activity against Bacillus subtilis ATCC 6633 by micro dilution checkerboard method in the presence of chloromycin; format: functional
Pseudomonas aeruginosa [35] = assay: Antibacterial activity against Pseudomonas aeruginosa ATCC 27853 by micro dilution checkerboard method in the presence of chloromycin; format: functional
Cyberlindnera jadinii [36] = assay: Antifungal activity against Candida utilis ATCC 9950 by micro dilution checkerboard method in the presence of fluconazole; format: functional
[37] = Staphylococcus aureus, ATCC 25923
[38] = Bacillus sp. (in: firmicutes), ATCC 13315
[39] = Pseudomonas aeruginosa, ATCC 27853

Clc1ccccc1CN(Cc1nnn[nH]1)c1ccccc1
32 µg/mL: MIC (Shigella dysenteriae [14]) | MIC (Bacillus sp. [15]; [38]) | MIC (Staphylococcus aureus [17]) | MIC (Micrococcus luteus [23]) | MIC (Staphylococcus aureus [33])
0.75: fractional inhibitory concentration index (FICI) (Staphylococcus aureus [3]) | fractional inhibitory concentration index (FICI) (Bacillus sp. [15]) | fractional inhibitory concentration index (FICI) (Candida albicans [18]) | fractional inhibitory concentration index (FICI) (Pseudomonas aeruginosa [20]) | fractional inhibitory concentration index (FICI) (Staphylococcus aureus [21]) | fractional inhibitory concentration index (FICI) (Escherichia coli [22]) | fractional inhibitory concentration index (FICI) (Micrococcus luteus [31])
4 µg/mL: MIC (Candida [10]) | MIC (Aspergillus flavus [12]; Aspergillus flavus) | MIC (Shigella dysenteriae [16]) | MIC (Cyberlindnera jadinii [32]) | MIC (Cyberlindnera jadinii [36]; Williopsis jadinii, ATCC 9950)
4.34: pKa [24]
8 µg/mL: MIC (Bacillus spizizenii [1]; Bacillus spizizenii, ATCC 6633) | MIC (Shigella dysenteriae [4]; Shigella dysenteriae, ATCC 51252) | MIC (Staphylococcus aureus [6]; Staphylococcus aureus, N315) | MIC (Escherichia coli [11]; Escherichia coli, DH52) | MIC (Micrococcus luteus [19]; Micrococcus luteus, ATCC 4698) | MIC (Staphylococcus aureus [21]; Staphylococcus aureus, N315) | MIC (Aspergillus flavus [27]) | MIC (Candida albicans [29]) | MIC (Micrococcus luteus [31]; Micrococcus luteus, ATCC 4698)
active: Activity (Calf thymus DNA [5]) | Activity (Calf thymus DNA [28]) Dose-dependent effect
4.16 ×10⁴ L/mol: K (Calf thymus DNA [28])
0.375: fractional inhibitory concentration index (FICI) (Bacillus spizizenii [34])
0.625: fractional inhibitory concentration index (FICI) (Bacillus spizizenii [1]) | fractional inhibitory concentration index (FICI) (Escherichia coli [11])
0.5: fractional inhibitory concentration index (FICI) (Shigella dysenteriae [4]) | fractional inhibitory concentration index (FICI) (Staphylococcus aureus [6]) | fractional inhibitory concentration index (FICI) (Bacillus sp. [7]) | fractional inhibitory concentration index (FICI) (Candida [8]) | fractional inhibitory concentration index (FICI) (Aspergillus flavus [12]) | fractional inhibitory concentration index (FICI) (Staphylococcus aureus [13]) | fractional inhibitory concentration index (FICI) (Micrococcus luteus [19]) | fractional inhibitory concentration index (FICI) (Pseudomonas aeruginosa [35]) | fractional inhibitory concentration index (FICI) (Cyberlindnera jadinii [36])
16 µg/mL: MIC (Bacillus sp. [2]) | MIC (Staphylococcus aureus [3]; [37]) | MIC (Bacillus sp. [7]; [38]) | MIC (Bacillus spizizenii [9]) | MIC (Staphylococcus aureus [13]; [37]) | MIC (Pseudomonas aeruginosa [20]; [39]) | MIC (Escherichia coli [22]; Escherichia coli, DH52) | MIC (Escherichia coli [25]) | MIC (Pseudomonas aeruginosa [26]) | MIC (Bacillus spizizenii [34]; Bacillus spizizenii, ATCC 6633) | MIC (Pseudomonas aeruginosa [35]; [39])
2 µg/mL: MIC (Candida [8]; Candida) | MIC (Candida albicans [18]; Candida albicans, ATCC 90029)
1.09: logP at 24 h [30]
